Experimental data as given in PubChem BioAssay AID2060333 (Molecular Pharmacology Branch, DTP, NCI, 2025).
“And” between values parts separate entries of the source, which are not always exact repeats. Identical values can stand only once.

Test system: 845751-090-R-J2-PDC tumor spheroid viability
Assay: Anticancer human tumor 845751-090-R-J2-PDC patient-derived head and neck squamous carcinoma cell line growth inhibition [IpAb]
Settings: spheroids with HUVEC and MSC; for viability, T/C: stronger effect = lower value
From the text: Combinatorial screen of targeted agents with ipatasertib and abemaciclib in multi-cell type tumor spheroids
A high-throughput screen of multi-cell type tumor spheroids was designed to identify active combinations of targeted small molecules and ipatasertib or abemaciclib. Complex spheroids include a stromal component modeled by human endothelial cells (HUVEC) and fibroblasts modeled by human mesenchymal stem cells (MSCs). The concentration ranges selected for each drug and investigational agent were based upon clinically achievable concentrations if the clinical Cmax of the agent was known.
Compounds. The drugs and investigational agents: ipatasertib (NSC767898), abemaciclib(NSC768073), selumetinib (NSC741078), trametinib (758246), adavosertib (NSC754352), everolimus (NSC733504), sapanisertib (NSC764658), vemurafenib (NSC761431), venetoclax (NSC766270), copanlisib (NSC809693), apelisib (NSC765974), palbociblib (NSC758247), vemurafenib (NSC761431), dabrafenib (NSC764134), ravoxertinib (NSC781343), BMS-387032 (NSC767048), sotorasib (NSC818433), talazoparib (NSC767125) and afursertib (NSC778305), were obtained from the National Cancer Institute (NCI) Developmental Therapeutics Program Chemical Repository. The FDA-approved anticancer drug set is available from the NCI Developmental Therapeutics Program. […] The stock solutions were prepared in dimethyl sulfoxide (DMSO, Sigma-Aldrich, St. Louis, MO, cat. D2650) at 800-fold the tested concentration and stored at -70 degrees C prior to their use. All drugs and investigational agents were tested over a range starting from a high concentration at or near the clinical Cmax and decreasing in half-log increments. If the clinical Cmax for an agent had not been determined, the highest concentration tested was 10 microM.
NCI60 Cell Culture. NCI60 cell lines were obtained from the NCI Developmental Therapeutics Program Tumor Repository. For each lot of cells, the Repository performed Applied Biosystems AmpFLSTR Identifiler testing with PCR amplification to confirm consistency with the published Identifier STR profile for each cell line. Cells were kept in continuous culture for no more than 20 passages. The optimal seeding densities for each of the cell lines at each time point assessed were determined prior to performing the concentration response studies. Briefly, the NCI60 human tumor lines were grown as monolayers in RPMI 1640 medium supplemented with 10% FBS and 2 mmol/L L-glutamine.
An additional 9 lines were from the NCI60 cell line panel including MDA-MB-231 breast carcinoma, MDA-MB-468 breast carcinoma, MCF7 breast carcinoma, Hs578T breast carcinoma, MALME-3M melanoma, SK-MEL-2 melanoma, SK-OV-3 ovarian carcinoma, DU-145 prostate carcinoma, PC-3 prostate carcinoma, all cell lines along with major genetic alterations are listed on Table 2. Pooled donor human umbilical vein endothelial cells (HUVEC, Lonza, cat. CC-2519) and human mesenchymal stem cells (hMSC, Lonza, cat. PT-2501) were purchased from Lonza (Walkersville, MD).
PDMR cell lines were grown in complete medium (DC medium): Dulbecco's modified Eagle's medium (DMEM)/F12 supplemented with 5% fetal bovine serum (FBS), 2 mM L-glutamine, 100 U/mL penicillin and 100 µg/ml streptomycin, 0.4 µg/ml hydrocortisone, 10 ng/ml epidermal growth factor (EGF) recombinant human protein, 24 µg/mL adenine, and 0.1 mg/mL primocin. During culture from frozen stock vials, PDMR cells were cultured in the same medium containing 10 µM Y-27632 (see Table 3). The PDCs were cultured in complete DMEM/F12 media without 10 microM Y-27632 dihydrochloride for at least two passages prior to the screen. The pooled donor HUVEC and hMSC were cultured in endothelial cell growth medium 2 (PromoCell, Heidelberg, Germany, cat. C-22011) and mesenchymal stem cell growth medium 2 (PromoCell, cat. C-28009), respectively. For all experiments, HUVEC and hMSC were used at passages </=5.
[…]

[1] = curve of first compound, second compound 0.1 µM
[2] = curve of first compound, second compound 0.316 µM
[3] = curve of first compound, second compound 1 µM
[4] = second compound 0.1 µM, first compound 0.00949 µM
[5] = second compound 0.1 µM, first compound 0.03 µM
[6] = second compound 0.1 µM, first compound 0.0949 µM
[7] = second compound 0.1 µM, first compound 0.3 µM
[8] = second compound 0.1 µM, first compound 0.949 µM
[9] = second compound 0.1 µM, first compound 3 µM
[10] = second compound 0.316 µM, first compound 0.00949 µM
[11] = second compound 0.316 µM, first compound 0.03 µM
[12] = second compound 0.316 µM, first compound 0.0949 µM
[13] = second compound 0.316 µM, first compound 0.3 µM
[14] = second compound 0.316 µM, first compound 0.949 µM
[15] = second compound 0.316 µM, first compound 3 µM
[16] = second compound 1 µM, first compound 0.00949 µM
[17] = second compound 1 µM, first compound 0.03 µM
[18] = second compound 1 µM, first compound 0.0949 µM
[19] = second compound 1 µM, first compound 0.3 µM
[20] = second compound 1 µM, first compound 0.949 µM
[21] = second compound 1 µM, first compound 3 µM
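Further: spheroids exposed to compounds for 7 days before readout.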
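Wherever viability, T/C is given: CTG3D luminescence normalised so that 100% = DMSO vehicle control.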

How did the IC50 [1] turn out when `Cn1cnc2c(F)c(Nc3ccc(Br)cc3Cl)c(C(=O)NOCCO)cc21` + CC(C)NCC(C(=O)N1CCN(c2ncnc3c2C(C)CC3O)CC1)c1ccc(Cl)cc1 was run?
The IC50 was < 9.49 nM.

And the IC50 [2]?
Its IC50 is < 9.49 nM.

And the IC50 [3]?
The IC50 was < 9.49 nM.

And the IC50 (curve of first compound, second compound 3.16 µM)?
Its IC50 is < 9.49 nM.

What about the IC50 (curve of first compound, second compound 10 µM) of the same molecule?
Its IC50 is < 9.49 nM.

What about the viability, T/C [4] of the same molecule?
The viability, T/C was 40.2%.

And the viability, T/C [5]?
Its viability, T/C is 29.9%.

What about the viability, T/C [6] of the same molecule?
Its viability, T/C is 23.6%.

What about the viability, T/C [7] of the same molecule?
Its viability, T/C is 20.6%.

What about the viability, T/C [8] of the same molecule?
Its viability, T/C is 16.6%.

And the viability, T/C [9]?
The viability, T/C was 12.3%.

And the viability, T/C [10]?
The viability, T/C was 17.2%.

What about the viability, T/C [11] of the same molecule?
Its viability, T/C is 15.4%.

What about the viability, T/C [12] of the same molecule?
The viability, T/C was 11.9%.

And the viability, T/C [13]?
Its viability, T/C is 11.2%.

What about the viability, T/C [14] of the same molecule?
Its viability, T/C is 7.05%.

What about the viability, T/C [15] of the same molecule?
Its viability, T/C is 5%.

And the viability, T/C [16]?
The viability, T/C was 14.4%.

What about the viability, T/C [17] of the same molecule?
The viability, T/C was 10.5%.

What about the viability, T/C [18] of the same molecule?
The viability, T/C was 6.55%.

What about the viability, T/C [19] of the same molecule?
Its viability, T/C is 4.68%.

What about the viability, T/C [20] of the same molecule?
Its viability, T/C is 4.96%.

And the viability, T/C [21]?
The viability, T/C was 2.43%.

And the viability, T/C (second compound 3.16 µM, first compound 0.00949 µM)?
Its viability, T/C is 11.3%.

What about the viability, T/C (second compound 3.16 µM, first compound 0.03 µM) of the same molecule?
Its viability, T/C is 5.57%.

What about the viability, T/C (second compound 3.16 µM, first compound 0.0949 µM) of the same molecule?
Its viability, T/C is 3.02%.

And the viability, T/C (second compound 3.16 µM, first compound 0.3 µM)?
Its viability, T/C is 3.4%.

What about the viability, T/C (second compound 3.16 µM, first compound 0.949 µM) of the same molecule?
Its viability, T/C is 1.75%.

And the viability, T/C (second compound 3.16 µM, first compound 3 µM)?
The viability, T/C was 1.07%.

And the viability, T/C (second compound 10 µM, first compound 0.00949 µM)?
The viability, T/C was 2.67%.

And the viability, T/C (second compound 10 µM, first compound 0.03 µM)?
Its viability, T/C is 1.92%.

And the viability, T/C (second compound 10 µM, first compound 0.0949 µM)?
The viability, T/C was 1.37%.

And the viability, T/C (second compound 10 µM, first compound 0.3 µM)?
Its viability, T/C is 1.13%.

What about the viability, T/C (second compound 10 µM, first compound 0.949 µM) of the same molecule?
Its viability, T/C is 2.24%.

What about the viability, T/C (second compound 10 µM, first compound 3 µM) of the same molecule?
The viability, T/C was 0.56%.

Which results are given for `Cn1ncnc1[C@H]1c2n[nH]c(=O)c3cc(F)cc(c23)N[C@@H]1c1ccc(F)cc1`?
viability, T/C (compound 0.000316 µM): 81.7% and 97.4%; viability, T/C (compound 0.001 µM): 80% and 90.8%; viability, T/C (compound 0.00316 µM): 137% and 113%; viability, T/C (compound 0.01 µM): 105% and 91.3%; viability, T/C (compound 0.0316 µM): 100% and 106%; viability, T/C (compound 0.1 µM): 96.4% and 111%; IC50 (curve of compound): > 100 nM

What does the source list for `CCCS(=O)(=O)Nc1ccc(F)c(C(=O)c2c[nH]c3ncc(-c4ccc(Cl)cc4)cc23)c1F`?
viability, T/C (compound 0.0316 µM): 134% and 78.5%; viability, T/C (compound 0.1 µM): 120% and 76.5%; viability, T/C (compound 0.316 µM): 111% and 63%; viability, T/C (compound 1 µM): 84.5% and 45.3%; viability, T/C (compound 3.16 µM): 46.7% and 33.6%; viability, T/C (compound 10 µM): 50.4% and 29.4%; IC50 (curve of compound): 5550 nM and 737 nM

For `Cn1cnc2c(F)c(Nc3ccc(Br)cc3Cl)c(C(=O)NOCCO)cc21` + CCN1CCN(Cc2ccc(Nc3ncc(F)c(-c4cc(F)c5nc(C)n(C(C)C)c5c4)n3)nc2)CC1, which IC50 (curve of first compound, second compound 0.01 µM) is on record?
Its IC50 is > 3000 nM.

What about the IC50 (curve of first compound, second compound 0.0316 µM) of the same molecule?
Its IC50 is > 3000 nM.

What about the IC50 [1] of the same molecule?
The IC50 was > 3000 nM.

What about the IC50 [2] of the same molecule?
The IC50 was > 3000 nM.

And the IC50 [3]?
Its IC50 is > 3000 nM.

What about the viability, T/C (second compound 0.01 µM, first compound 0.00949 µM) of the same molecule?
Its viability, T/C is 198%.

What about the viability, T/C (second compound 0.01 µM, first compound 0.03 µM) of the same molecule?
Its viability, T/C is 194%.

And the viability, T/C (second compound 0.01 µM, first compound 0.0949 µM)?
The viability, T/C was 139%.

And the viability, T/C (second compound 0.01 µM, first compound 0.3 µM)?
Its viability, T/C is 129%.

What about the viability, T/C (second compound 0.01 µM, first compound 0.949 µM) of the same molecule?
The viability, T/C was 109%.

What about the viability, T/C (second compound 0.01 µM, first compound 3 µM) of the same molecule?
Its viability, T/C is 69.8%.

And the viability, T/C (second compound 0.0316 µM, first compound 0.00949 µM)?
Its viability, T/C is 171%.

What about the viability, T/C (second compound 0.0316 µM, first compound 0.03 µM) of the same molecule?
Its viability, T/C is 148%.

And the viability, T/C (second compound 0.0316 µM, first compound 0.0949 µM)?
Its viability, T/C is 125%.

What about the viability, T/C (second compound 0.0316 µM, first compound 0.3 µM) of the same molecule?
The viability, T/C was 107%.

And the viability, T/C (second compound 0.0316 µM, first compound 0.949 µM)?
The viability, T/C was 89.3%.

And the viability, T/C (second compound 0.0316 µM, first compound 3 µM)?
Its viability, T/C is 71.5%.

And the viability, T/C [4]?
Its viability, T/C is 147%.

What about the viability, T/C [5] of the same molecule?
The viability, T/C was 137%.

What about the viability, T/C [6] of the same molecule?
Its viability, T/C is 135%.

What about the viability, T/C [7] of the same molecule?
Its viability, T/C is 106%.

What about the viability, T/C [8] of the same molecule?
Its viability, T/C is 82.3%.

And the viability, T/C [9]?
Its viability, T/C is 63.8%.

And the viability, T/C [10]?
The viability, T/C was 163%.

And the viability, T/C [11]?
The viability, T/C was 150%.

And the viability, T/C [12]?
The viability, T/C was 136%.

What about the viability, T/C [13] of the same molecule?
Its viability, T/C is 128%.

And the viability, T/C [14]?
The viability, T/C was 101%.

What about the viability, T/C [15] of the same molecule?
Its viability, T/C is 97.2%.

What about the viability, T/C [16] of the same molecule?
The viability, T/C was 159%.

And the viability, T/C [17]?
Its viability, T/C is 167%.

What about the viability, T/C [18] of the same molecule?
Its viability, T/C is 138%.

And the viability, T/C [19]?
Its viability, T/C is 114%.

And the viability, T/C [20]?
Its viability, T/C is 107%.

And the viability, T/C [21]?
The viability, T/C was 64%.
